Source: patent US20130225508A1, “PEPTIDE CAPABLE OF BINDING TO IMMUNOGLOBULIN” (priority 2010, published 2013)

Tested on: adjuvant-induced arthritis
Assay: Adjuvant arthritis rat model
Format: in vivo, Lewis/CrlCrlj rats
Set-up: key to Redness scores (left hind-limb) / Redness scores (right hind-limb): 0 = no redness, 4 = severe redness; key to Scores of swelling in the instep (left hind-limb) / Scores of swelling in the instep (right hind-limb): 0 = no swelling, 4 = severe swelling; key to Scores of swelling in knuckle joints (left hind-limb) / Scores of swelling in knuckle joints (right hind-limb): 0 = no swelling, 4 = swelling of all the digits
Text: Male Lewis/CrlCrlj (SPF) rats were used to investigate the arthritis suppressing effect of a peptide of the present invention on adjuvant-induced arthritis. Forty-five rats were purchased from Charles River Laboratories Japan, Inc., and fed normal chow and allowed to acclimate for 7 days before used (the range of body weights was from 193.3 to 218.3 g at the beginning of use).
In an agate motor, dead tubercle bacilli (Mycobacterium butyricum; Lot No. 0260570, Difco) were pulverized. Then, liquid paraffin was added in small amounts to spread the pulverized bacilli well, so as to allow them to be emulsified at 1.0 mg/mL. The resultant emulsion was used after verification to ensure that the pulverized bacilli had been allowed to be finely emulsified, using an NM MICRONIZER (Nippon Seiki Co., Ltd.).
A right hind-limb of the respective rats was exposed, and 100 μL of the emulsion was intradermally injected once into a footpad of the right hind-limb using a 25G-needle attached syringe, to cause arthritis (day 0).
Each of the groups was comprised of 5 animals.
Arthritis was evaluated only for the hind-limbs, based on the criteria described below:
Score 0: no swelling Score 1: swelling of not more than two digits Score 2: swelling of three digits Score 3: swelling of four digits Score 4: swelling of all the digits
Score 0: no swelling Score 1: mild swelling Score 2: modest swelling Score 3: rather severe swelling Score 4: severe swelling
Score 0: no redness Score 1: mild redness Score 2: modest redness Score 3: rather severe redness Score 4: severe redness (iii) Measurement of Foot Volumes of Left And Right Hind-Limbs
Measurement was performed using a plethysmometer (UNICOM TK105). The increasing rate foot volume (percentage of paw swelling, paw swelling %) was calculated by the following formula:
Percent paw swelling (%)=[(Vt−Vo)/Vo]×100
In addition, in these examinations, the percent change of edema relative to day 10 post-adjuvant was calculated, in order to assess the effect of treatment with the test substances.
Data are expressed by mean±standard error. Since the uniformity of variance was not verified in testing between the negative and the positive control groups, testing for significant difference was performed by Aspin-Welch t-test. Since the uniformity of variance was not verified in testing for significant differences of the respective test-substance administered groups relative to the positive control group, assessment was performed by Dunnett's multiple comparison test after Kruskal-Wallis testing, using non-parametric procedures. Differences were considered to be statistically significant at p values of less than 0.05.

[1] = Day 0 post-adjuvant, 0.15 mg/kg oral from day 10
[2] = Day 0 post-adjuvant, 0.15 mg/kg oral, pre-administered group
[3] = Day 3 post-adjuvant, 0.15 mg/kg oral from day 10
[4] = Day 3 post-adjuvant, 0.15 mg/kg oral, pre-administered group
[5] = Day 7 post-adjuvant, 0.15 mg/kg oral from day 10
[6] = Day 7 post-adjuvant, 0.15 mg/kg oral, pre-administered group
[7] = Day 10 post-adjuvant, 0.15 mg/kg oral from day 10
[8] = Day 10 post-adjuvant, 0.15 mg/kg oral, pre-administered group
[9] = Day 14 post-adjuvant, 0.15 mg/kg oral from day 10
[10] = Day 14 post-adjuvant, 0.15 mg/kg oral, pre-administered group
[11] = Day 17 post-adjuvant, 0.15 mg/kg oral from day 10
[12] = Day 17 post-adjuvant, 0.15 mg/kg oral, pre-administered group
[13] = Day 21 post-adjuvant, 0.15 mg/kg oral from day 10
[14] = Day 21 post-adjuvant, 0.15 mg/kg oral, pre-administered group

Structure (SMILES): CN(Cc1cnc2nc(N)nc(N)c2n1)c1ccc(C(=O)N[C@@H](CCC(=O)O)C(=O)O)cc1 [Methotrexate]
- Redness scores (left hind-limb) [1]: 0.0 ± 0.0
- Redness scores (right hind-limb) [1]: 0.0 ± 0.0
- Scores of swelling in knuckle joints (left hind-limb) [1]: 0.0 ± 0.0
- Scores of swelling in knuckle joints (right hind-limb) [1]: 0.0 ± 0.0
- Scores of swelling in the instep (left hind-limb) [1]: 0.0 ± 0.0
- Scores of swelling in the instep (right hind-limb) [1]: 0.0 ± 0.0
- Total scores (left hind-limb) [1]: 0.0 ± 0.0
- Total scores (right hind-limb) [1]: 0.0 ± 0.0
- Redness scores (left hind-limb) [2]: 0.0 ± 0.0
- Redness scores (right hind-limb) [2]: 0.0 ± 0.0
- Scores of swelling in knuckle joints (left hind-limb) [2]: 0.0 ± 0.0
- Scores of swelling in knuckle joints (right hind-limb) [2]: 0.0 ± 0.0
- Scores of swelling in the instep (left hind-limb) [2]: 0.0 ± 0.0
- Scores of swelling in the instep (right hind-limb) [2]: 0.0 ± 0.0
- Total scores (left hind-limb) [2]: 0.0 ± 0.0
- Total scores (right hind-limb) [2]: 0.0 ± 0.0
- Redness scores (left hind-limb) [3]: 0.0 ± 0.0
- Redness scores (right hind-limb) [3]: 0.0 ± 0.0
- Scores of swelling in knuckle joints (left hind-limb) [3]: 0.0 ± 0.0
- Scores of swelling in knuckle joints (right hind-limb) [3]: 0.0 ± 0.0
- Scores of swelling in the instep (left hind-limb) [3]: 0.0 ± 0.0
- Scores of swelling in the instep (right hind-limb) [3]: 0.0 ± 0.0
- Total scores (left hind-limb) [3]: 0.0 ± 0.0
- Total scores (right hind-limb) [3]: 0.0 ± 0.0
- Redness scores (left hind-limb) [4]: 0.0 ± 0.0
- Redness scores (right hind-limb) [4]: 0.0 ± 0.0
- Scores of swelling in knuckle joints (left hind-limb) [4]: 0.0 ± 0.0
- Scores of swelling in knuckle joints (right hind-limb) [4]: 0.0 ± 0.0
- Scores of swelling in the instep (left hind-limb) [4]: 0.0 ± 0.0
- Scores of swelling in the instep (right hind-limb) [4]: 0.0 ± 0.0
- Total scores (left hind-limb) [4]: 0.0 ± 0.0
- Total scores (right hind-limb) [4]: 0.0 ± 0.0
- Redness scores (left hind-limb) [5]: 0.0 ± 0.0
- Redness scores (right hind-limb) [5]: 0.4 ± 0.2
- Scores of swelling in knuckle joints (left hind-limb) [5]: 0.4 ± 0.2
- Scores of swelling in knuckle joints (right hind-limb) [5]: 0.6 ± 0.2
- Scores of swelling in the instep (left hind-limb) [5]: 0.0 ± 0.0
- Scores of swelling in the instep (right hind-limb) [5]: 1.2 ± 0.2
- Total scores (left hind-limb) [5]: 0.4 ± 0.5
- Total scores (right hind-limb) [5]: 2.2 ± 0.8
- Redness scores (left hind-limb) [6]: 0.0 ± 0.0
- Redness scores (right hind-limb) [6]: 0.2 ± 0.2
- Scores of swelling in knuckle joints (left hind-limb) [6]: 0.0 ± 0.0
- Scores of swelling in knuckle joints (right hind-limb) [6]: 0.4 ± 0.2
- Scores of swelling in the instep (left hind-limb) [6]: 0.0 ± 0.0
- Scores of swelling in the instep (right hind-limb) [6]: 0.0 ± 0.0
- Total scores (left hind-limb) [6]: 0.0 ± 0.0
- Total scores (right hind-limb) [6]: 0.6 ± 0.4
- Redness scores (left hind-limb) [7]: 0.4 ± 0.2
- Redness scores (right hind-limb) [7]: 1.4 ± 0.4
- Scores of swelling in knuckle joints (left hind-limb) [7]: 0.6 ± 0.2
- Scores of swelling in knuckle joints (right hind-limb) [7]: 1.6 ± 0.4
- Scores of swelling in the instep (left hind-limb) [7]: 0.6 ± 0.2
- Scores of swelling in the instep (right hind-limb) [7]: 1.4 ± 0.4
- Total scores (left hind-limb) [7]: 1.6 ± 0.5
- Total scores (right hind-limb) [7]: 4.4 ± 1.5
- Redness scores (left hind-limb) [8]: 0.0 ± 0.0
- Redness scores (right hind-limb) [8]: 0.0 ± 0.0
- Scores of swelling in knuckle joints (left hind-limb) [8]: 0.2 ± 0.2
- Scores of swelling in knuckle joints (right hind-limb) [8]: 0.2 ± 0.2
- Scores of swelling in the instep (left hind-limb) [8]: 0.0 ± 0.0
- Scores of swelling in the instep (right hind-limb) [8]: 0.4 ± 0.2
- Total scores (left hind-limb) [8]: 0.2 ± 0.2
- Total scores (right hind-limb) [8]: 0.6 ± 0.4
- Redness scores (left hind-limb) [9]: 0.2 ± 0.2
- Redness scores (right hind-limb) [9]: 1.0 ± 0.3
- Scores of swelling in knuckle joints (left hind-limb) [9]: 0.8 ± 0.2
- Scores of swelling in knuckle joints (right hind-limb) [9]: 1.2 ± 0.2
- Scores of swelling in the instep (left hind-limb) [9]: 0.2 ± 0.2
- Scores of swelling in the instep (right hind-limb) [9]: 1.4 ± 0.4
- Total scores (left hind-limb) [9]: 1.2 ± 0.6
- Total scores (right hind-limb) [9]: 3.6 ± 1.1
- Redness scores (left hind-limb) [10]: 0.0 ± 0.0
- Redness scores (right hind-limb) [10]: 0.2 ± 0.2
- Scores of swelling in knuckle joints (left hind-limb) [10]: 0.4 ± 0.2
- Scores of swelling in knuckle joints (right hind-limb) [10]: 0.8 ± 0.2
- Scores of swelling in the instep (left hind-limb) [10]: 0.0 ± 0.0
- Scores of swelling in the instep (right hind-limb) [10]: 0.8 ± 0.2
- Total scores (left hind-limb) [10]: 0.4 ± 0.2
- Total scores (right hind-limb) [10]: 1.8 ± 0.2
- Redness scores (left hind-limb) [11]: 0.6 ± 0.4
- Redness scores (right hind-limb) [11]: 1.2 ± 0.2
- Scores of swelling in knuckle joints (left hind-limb) [11]: 0.4 ± 0.2
- Scores of swelling in knuckle joints (right hind-limb) [11]: 0.6 ± 0.2
- Scores of swelling in the instep (left hind-limb) [11]: 0.8 ± 0.6
- Scores of swelling in the instep (right hind-limb) [11]: 2.0 ± 0.4
- Total scores (left hind-limb) [11]: 1.8 ± 1.4
- Total scores (right hind-limb) [11]: 3.8 ± 0.9
- Redness scores (left hind-limb) [12]: 0.4 ± 0.4
- Redness scores (right hind-limb) [12]: 0.8 ± 0.4
- Scores of swelling in knuckle joints (left hind-limb) [12]: 0.6 ± 0.2
- Scores of swelling in knuckle joints (right hind-limb) [12]: 1.0 ± 0.3
- Scores of swelling in the instep (left hind-limb) [12]: 0.4 ± 0.2
- Scores of swelling in the instep (right hind-limb) [12]: 1.4 ± 0.2
- Total scores (left hind-limb) [12]: 1.4 ± 0.7
- Total scores (right hind-limb) [12]: 3.2 ± 0.8
- Redness scores (left hind-limb) [13]: 0.6 ± 0.6
- Redness scores (right hind-limb) [13]: 1.2 ± 0.5
- Scores of swelling in knuckle joints (left hind-limb) [13]: 0.6 ± 0.6
- Scores of swelling in knuckle joints (right hind-limb) [13]: 0.8 ± 0.6
- Scores of swelling in the instep (left hind-limb) [13]: 0.6 ± 0.6
- Scores of swelling in the instep (right hind-limb) [13]: 2.2 ± 0.6
- Total scores (left hind-limb) [13]: 1.8 ± 2.3
- Total scores (right hind-limb) [13]: 4.2 ± 2.0
- Redness scores (left hind-limb) [14]: 0.2 ± 0.2
- Redness scores (right hind-limb) [14]: 0.8 ± 0.2
- Scores of swelling in knuckle joints (left hind-limb) [14]: 0.4 ± 0.2
- Scores of swelling in knuckle joints (right hind-limb) [14]: 0.8 ± 0.2
- Scores of swelling in the instep (left hind-limb) [14]: 0.2 ± 0.2
- Scores of swelling in the instep (right hind-limb) [14]: 1.2 ± 0.4
- Total scores (left hind-limb) [14]: 0.8 ± 0.6
- Total scores (right hind-limb) [14]: 2.8 ± 0.6
